In US20260365670A1, “EGFR INHIBITORS AND USES THEREOF” (DIZAL (JIANGSU) PHARMACEUTICAL CO., LTD., priority 2022, published 2026):
Like-named read-outs stand apart in the source and are kept apart here.

Tests used:
EGFR (C797S L858R) = biological target: T1, EGFR (C797S L858R) (Homo sapiens, UniProt P00533, C797S/L858R); assay: Inhibition of EGFR (C797S L858R) biochemical enzymatic activity (HTRF); conditions: 1 mM ATP
T1 construct: purchased signalchem
In short: (§1)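 1 mM ATP, 1 μM biotin-TK peptide, 5 mM MgCl2, 1 mM MnCl2, 0.01% CHAPS, 1 mM DTT, 0.5% DMSO; 1 h RT; EDTA stop; HTRF 665/615 nm; IC50 via 4PL.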

EGFR Exon19Del = biological target: T2, EGFR Exon19Del (Homo sapiens, UniProt P00533, DEL746-750); assay: Inhibition of EGFR Exon19Del biochemical enzymatic activity (HTRF); conditions: read-out: IC50 @Del19
T2 construct: purchased Carna Bio
T2 sequence (P00533 with tags, fused parts or gaps DEL746-750 limits assumed): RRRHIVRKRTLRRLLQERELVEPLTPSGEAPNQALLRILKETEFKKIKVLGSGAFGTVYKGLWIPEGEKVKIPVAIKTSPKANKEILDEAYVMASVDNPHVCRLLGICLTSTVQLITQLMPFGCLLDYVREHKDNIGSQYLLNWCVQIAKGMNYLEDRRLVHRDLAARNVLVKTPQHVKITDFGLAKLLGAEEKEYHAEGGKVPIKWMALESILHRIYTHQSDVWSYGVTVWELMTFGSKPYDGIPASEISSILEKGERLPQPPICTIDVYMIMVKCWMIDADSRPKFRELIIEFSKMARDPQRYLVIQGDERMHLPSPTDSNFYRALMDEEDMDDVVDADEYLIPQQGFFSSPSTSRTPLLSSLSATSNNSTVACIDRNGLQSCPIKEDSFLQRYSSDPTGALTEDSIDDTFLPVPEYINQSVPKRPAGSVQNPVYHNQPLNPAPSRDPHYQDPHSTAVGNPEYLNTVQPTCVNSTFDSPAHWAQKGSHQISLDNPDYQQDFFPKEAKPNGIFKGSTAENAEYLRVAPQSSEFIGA
In short: as §1

EGFR L858R/T790M = biological target: T3, EGFR L858R/T790M (Homo sapiens, UniProt P00533, L858R/T790M); assay: Inhibition of EGFR L858R/T790M biochemical enzymatic activity (HTRF); conditions: 1 mM ATP
T3 construct: purchased Carna Bio
In short: as §1

EGFR Exon19Del/T790M = biological target: T4, EGFR Exon19Del/T790M (Homo sapiens, UniProt P00533, DEL746-750/T790M); assay: Inhibition of EGFR Exon19Del/T790M biochemical enzymatic activity (HTRF); conditions: 1 mM ATP
T4 construct: purchased Carna Bio
T4 sequence (P00533 with tags, fused parts or gaps DEL746-750/T790M limits assumed): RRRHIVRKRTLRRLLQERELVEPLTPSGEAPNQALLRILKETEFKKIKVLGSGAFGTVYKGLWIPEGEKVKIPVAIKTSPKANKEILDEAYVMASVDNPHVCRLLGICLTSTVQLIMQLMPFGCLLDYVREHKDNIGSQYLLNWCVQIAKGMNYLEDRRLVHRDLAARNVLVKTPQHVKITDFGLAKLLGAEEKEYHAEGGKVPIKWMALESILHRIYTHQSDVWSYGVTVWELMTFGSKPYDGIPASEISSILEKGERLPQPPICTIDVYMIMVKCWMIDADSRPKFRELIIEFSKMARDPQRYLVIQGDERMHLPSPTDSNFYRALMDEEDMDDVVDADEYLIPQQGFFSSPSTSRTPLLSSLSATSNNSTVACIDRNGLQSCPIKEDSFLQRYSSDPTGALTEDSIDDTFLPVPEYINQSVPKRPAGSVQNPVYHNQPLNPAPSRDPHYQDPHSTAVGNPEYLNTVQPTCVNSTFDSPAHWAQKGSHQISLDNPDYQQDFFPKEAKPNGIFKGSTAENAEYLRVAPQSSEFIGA
In short: as §1

EGFR (d746-750 C797S) = biological target: T5, EGFR (d746-750 C797S) (Homo sapiens, UniProt P00533, C797S/DEL746-750); assay: Inhibition of EGFR (d746-750 C797S) biochemical enzymatic activity (HTRF); conditions: 1 mM ATP
T5 construct: purchased signalchem
T5 sequence (P00533 with tags, fused parts or gaps DEL746-750/C797S limits assumed): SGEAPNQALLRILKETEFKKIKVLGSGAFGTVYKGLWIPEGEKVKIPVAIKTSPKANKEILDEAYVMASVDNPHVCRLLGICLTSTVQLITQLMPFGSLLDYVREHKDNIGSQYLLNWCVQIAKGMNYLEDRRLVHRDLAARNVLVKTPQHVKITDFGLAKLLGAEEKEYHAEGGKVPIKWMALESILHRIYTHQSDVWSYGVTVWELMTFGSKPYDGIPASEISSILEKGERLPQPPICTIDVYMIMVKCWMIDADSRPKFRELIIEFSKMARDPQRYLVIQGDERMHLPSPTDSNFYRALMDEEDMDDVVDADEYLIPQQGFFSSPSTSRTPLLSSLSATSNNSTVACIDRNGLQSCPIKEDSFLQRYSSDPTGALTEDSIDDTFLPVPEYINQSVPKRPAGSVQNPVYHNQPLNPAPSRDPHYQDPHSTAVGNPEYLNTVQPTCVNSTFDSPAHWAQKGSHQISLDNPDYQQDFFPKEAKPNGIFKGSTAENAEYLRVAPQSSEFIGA
In short: as §1

[1] = test system: Ba/F3 cells expressing EGFR mutations; assay: Cell proliferation assay, Ba/F3 cells expressing EGFR mutations (CellTiter-Glo, 72 hours); format: cell-based
In short: (§2)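 Ba/F3 cells (5000/well) and PC-9 cells (500/well, RPMI1640 with 10% FBS) were plated overnight and then dosed with a compound concentration series. Viable cells were read at day 0 (G0) and after treatment (G3). GI50 came from curve fits of G0-corrected proliferation relative to DMSO.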

PC-9 = assay: Cell proliferation assay, PC-9 cells (CellTiter-Glo, 72 hours); format: cell-based; conditions: PC9 cells
In short: as §2

A-431 [2] = assay: Cell proliferation assay, A-431 cells (GI50, Table 6); format: cell-based; conditions: Homo sapiens, A-431, A-431 cells
Protocol: [Worded in the source for another cell line; this cell line is reported under the same test.] Ba/F3 cells expressing EGFR mutations were seeded in 384-well plates at 5000 cells/well in RPMI1640 medium containing […]. PC-9 at 500 cells/well was seeded into 384-well plates in RPMI1640 medium with 10% FBS. After overnight incubation, the assay plates were dosed with compounds at a series of concentrations. Alongside dosing the assay plates, the day 0 plate was processed using CellTiter-Glo® Luminescent Cell Viability Assay (Promega) to measure the number of viable cells (G0). The assay plates were further incubated for 72 hours and the number of viable cells (G3) was measured. The percentage of proliferation was calculated as: […]=100×(G3 value of sample well−G0 value)/(G3 value of DMSO control−G0 value). The concentration of compound producing 50% proliferation inhibition (GI50) was further calculated in best-fit curves using XLFit software. N/A=not available.

[3] = biological target: T6, EGFR[T790M/C797S/d746-750] (Homo sapiens, UniProt P00533, C797S/DEL746-750/T790M); assay: Inhibition of EGFR[T790M/C797S/d746-750] biochemical enzymatic activity (HTRF)
T6 construct: purchased Carna Bio
T6 sequence (P00533 with tags, fused parts or gaps DEL746-750/T790M/C797S limits assumed): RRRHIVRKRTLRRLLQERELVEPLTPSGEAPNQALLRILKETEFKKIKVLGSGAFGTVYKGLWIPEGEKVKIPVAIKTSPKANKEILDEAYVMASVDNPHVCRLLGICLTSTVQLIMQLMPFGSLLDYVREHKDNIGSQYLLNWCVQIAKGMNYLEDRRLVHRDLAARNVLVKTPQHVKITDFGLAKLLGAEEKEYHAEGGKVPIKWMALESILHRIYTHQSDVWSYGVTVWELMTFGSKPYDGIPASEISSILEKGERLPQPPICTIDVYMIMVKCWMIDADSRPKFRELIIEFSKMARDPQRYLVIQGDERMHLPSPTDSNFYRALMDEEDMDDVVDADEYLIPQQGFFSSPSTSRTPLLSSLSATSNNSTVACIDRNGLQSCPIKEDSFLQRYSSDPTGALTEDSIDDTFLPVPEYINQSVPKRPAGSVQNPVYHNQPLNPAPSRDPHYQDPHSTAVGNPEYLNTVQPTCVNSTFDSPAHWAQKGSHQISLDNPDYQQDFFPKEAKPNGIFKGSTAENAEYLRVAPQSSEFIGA
In short: as §1

EGFR[T790M/C797S/L858R] = biological target: T7, EGFR[T790M/C797S/L858R] (Homo sapiens, UniProt P00533, C797S/L858R/T790M); assay: Inhibition of EGFR[T790M/C797S/L858R] biochemical enzymatic activity (HTRF); conditions: 1 mM ATP
T7 construct: purchased Carna Bio
T7 sequence (P00533 25-1210 T790M/C797S/L858R): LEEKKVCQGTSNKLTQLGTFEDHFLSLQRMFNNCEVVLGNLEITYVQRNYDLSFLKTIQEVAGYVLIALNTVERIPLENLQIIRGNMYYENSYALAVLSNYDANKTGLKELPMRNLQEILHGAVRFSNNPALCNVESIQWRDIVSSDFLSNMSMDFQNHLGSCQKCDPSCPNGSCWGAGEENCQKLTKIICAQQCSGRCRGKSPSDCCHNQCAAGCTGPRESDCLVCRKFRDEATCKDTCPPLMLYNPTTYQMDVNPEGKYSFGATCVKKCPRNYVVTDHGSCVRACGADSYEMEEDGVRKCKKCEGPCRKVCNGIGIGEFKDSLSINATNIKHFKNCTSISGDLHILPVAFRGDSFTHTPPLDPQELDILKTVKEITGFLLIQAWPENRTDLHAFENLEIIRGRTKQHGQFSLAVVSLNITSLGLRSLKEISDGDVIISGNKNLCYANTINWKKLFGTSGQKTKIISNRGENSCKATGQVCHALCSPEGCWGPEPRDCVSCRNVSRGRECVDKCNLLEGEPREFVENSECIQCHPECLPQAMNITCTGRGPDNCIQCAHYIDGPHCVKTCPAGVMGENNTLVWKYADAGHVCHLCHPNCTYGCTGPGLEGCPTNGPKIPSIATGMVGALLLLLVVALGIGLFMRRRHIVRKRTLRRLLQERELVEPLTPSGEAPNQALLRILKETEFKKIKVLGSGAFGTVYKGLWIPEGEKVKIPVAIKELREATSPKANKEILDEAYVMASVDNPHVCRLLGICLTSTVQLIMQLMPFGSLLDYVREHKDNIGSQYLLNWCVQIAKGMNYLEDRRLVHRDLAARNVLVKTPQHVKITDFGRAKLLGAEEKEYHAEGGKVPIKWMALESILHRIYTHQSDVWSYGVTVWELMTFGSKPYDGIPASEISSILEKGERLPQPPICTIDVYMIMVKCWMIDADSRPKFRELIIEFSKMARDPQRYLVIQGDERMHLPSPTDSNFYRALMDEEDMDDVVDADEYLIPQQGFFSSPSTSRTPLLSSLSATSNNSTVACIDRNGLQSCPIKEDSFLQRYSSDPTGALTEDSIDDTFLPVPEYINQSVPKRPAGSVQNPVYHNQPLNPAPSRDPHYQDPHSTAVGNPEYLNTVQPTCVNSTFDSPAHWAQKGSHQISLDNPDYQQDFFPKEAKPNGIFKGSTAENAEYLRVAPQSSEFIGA
In short: as §1

EGFR L858R = biological target: T8, EGFR L858R (Homo sapiens, UniProt P00533, L858R); assay: Inhibition of EGFR L858R biochemical enzymatic activity (HTRF); conditions: 1 mM ATP
T8 construct: purchased Carna Bio
T8 sequence (P00533 25-1210 L858R): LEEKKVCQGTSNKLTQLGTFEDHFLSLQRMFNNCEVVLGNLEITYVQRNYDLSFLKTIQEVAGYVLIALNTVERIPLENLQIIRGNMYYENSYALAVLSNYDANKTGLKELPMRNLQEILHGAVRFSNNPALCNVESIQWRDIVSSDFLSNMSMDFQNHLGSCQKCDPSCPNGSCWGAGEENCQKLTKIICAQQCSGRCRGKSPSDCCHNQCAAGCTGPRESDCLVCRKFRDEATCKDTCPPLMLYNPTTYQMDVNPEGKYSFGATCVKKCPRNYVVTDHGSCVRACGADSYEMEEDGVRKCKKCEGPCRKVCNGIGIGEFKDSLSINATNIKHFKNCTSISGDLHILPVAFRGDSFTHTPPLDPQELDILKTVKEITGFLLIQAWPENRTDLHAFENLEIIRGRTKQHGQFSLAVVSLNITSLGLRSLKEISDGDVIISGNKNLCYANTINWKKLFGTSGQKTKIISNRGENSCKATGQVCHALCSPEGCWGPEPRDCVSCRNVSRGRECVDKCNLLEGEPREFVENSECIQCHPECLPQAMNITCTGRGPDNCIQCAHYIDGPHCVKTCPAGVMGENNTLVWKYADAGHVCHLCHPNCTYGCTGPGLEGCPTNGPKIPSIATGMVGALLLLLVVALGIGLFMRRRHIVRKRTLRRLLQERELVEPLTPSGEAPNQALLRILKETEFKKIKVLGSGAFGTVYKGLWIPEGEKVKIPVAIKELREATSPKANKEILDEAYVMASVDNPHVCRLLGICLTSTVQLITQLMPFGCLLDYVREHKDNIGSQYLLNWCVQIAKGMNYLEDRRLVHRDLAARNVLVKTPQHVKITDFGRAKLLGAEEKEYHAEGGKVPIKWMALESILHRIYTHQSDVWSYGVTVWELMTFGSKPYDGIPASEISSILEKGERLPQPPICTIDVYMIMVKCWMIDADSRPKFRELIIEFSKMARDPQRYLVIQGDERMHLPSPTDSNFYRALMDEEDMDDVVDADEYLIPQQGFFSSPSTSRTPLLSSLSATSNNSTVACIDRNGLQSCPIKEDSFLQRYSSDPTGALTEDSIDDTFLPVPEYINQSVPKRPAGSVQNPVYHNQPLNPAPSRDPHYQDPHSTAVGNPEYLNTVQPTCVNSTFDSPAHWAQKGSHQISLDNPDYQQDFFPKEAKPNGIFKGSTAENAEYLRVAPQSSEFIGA
In short: as §1

EGFR wild type = biological target: T9, EGFR wild type (Homo sapiens, UniProt P00533); assay: Inhibition of EGFR wild type biochemical enzymatic activity (HTRF); conditions: EGFR WT, 1 mM ATP, 1 h, room temperature, read-out: IC50 (nM) @WT
T9 construct: purchased Carna Bio
In short: as §1

A-431 [4] = assay: Cell proliferation GI50, A-431 cells (Table 6); format: cell-based; conditions: A-431 cells
[5] = Mus musculus, BaF3, 72 h, BaF3 cells, EGFR DEL19 - C797S, read-out: GI50 DEL19 - C797S/BaF3
[6] = Mus musculus, BaF3, 72 h, BaF3 cells, EGFR DEL19 - T790-C797S, read-out: GI50 DEL19 - T790-C797S/BaF3
[7] = Mus musculus, BaF3, 72 h, BaF3 cells, EGFR L858R - C797S, read-out: GI50 L858R - C797S/BaF3
[8] = Mus musculus, BaF3, 72 h, BaF3 cells, EGFR L858R - T790-C797S, read-out: GI50 L858R - T790-C797S/BaF3
[9] = Mus musculus, BaF3, 72 h, BaF3 cells, EGFR L858R - T790M, read-out: GI50 L858R - T790M/BaF3
[10] = Mus musculus, BaF3, 72 h, BaF3 cells, EGFR L858R, read-out: GI50 L858R/BaF3
[11] = Mus musculus, BaF3, 72 h, EGFR DEL19 - T790M, read-out: GI50 DEL19 - T790M
[12] = Homo sapiens, PC-9, 72 h, read-out: GI50 PC9
[13] = EGFR L858-C797S, 1 h, room temperature, read-out: IC50 (nM) @L858-C797S
[14] = EGFR L858R-T790M, 1 h, room temperature, read-out: IC50 (nM) @L858R-T790M
[15] = EGFR Del19-T790M, 1 h, room temperature, read-out: IC50 (nM) @Del19-T790M
[16] = EGFR Del19-C797S, 1 h, room temperature, read-out: IC50 (nM) @Del19-C797S
[17] = EGFR T790M-C797S-Del19, 1 mM ATP, 1 h, room temperature, read-out: IC50 (nM) @T790M - C797S - Del19
[18] = EGFR T790M-C797S-L858R, 1 h, room temperature, read-out: IC50 (nM) @T790M- C797S - L858R
[19] = 1 h, room temperature, read-out: IC50 (nM) @L858R

Row | Compound | GI50 [1, 5] | GI50 [1, 6] | GI50 [1, 7] | GI50 [1, 8] | GI50 [1, 9] | GI50 [1, 10] | GI50 [1, 11] | GI50 (PC-9; [12]) | GI50 (A-431 [2]) | IC50 (EGFR wild type) | IC50 (EGFR (C797S L858R); [13]) | IC50 (EGFR L858R/T790M; [14]) | IC50 (EGFR Exon19Del/T790M; [15]) | IC50 (EGFR (d746-750 C797S); [16]) | IC50 [3, 17] | IC50 (EGFR[T790M/C797S/L858R]; [18]) | IC50 (EGFR L858R; [19]) | further results
1 | Cc1cc2cc(n1)-c1cnn(C)c1OCCN1CC3CCC(CC3)(C1)n1c(nc3ccc(N4CCC5(CCN(C)CC5)C4)cc31)NC2=O [Example B31] | 24 nM | 10 nM | 127 nM | 19 nM | 38 nM | 81 nM | 10 nM | 103 nM | 1680 nM |  |  |  |  |  |  |  |  | IC50 (EGFR (C797S L858R); EGFR (C797S L858R), 1 h at room temperature, read-out: IC50 @L858-C797S): 113 nM; IC50 (EGFR Exon19Del; EGFR Exon19Del, 1 mM ATP, 1 h at room temperature): 19 nM; IC50 (EGFR L858R/T790M; EGFR L858R/T790M, 1 h at room temperature, read-out: IC50 @L858R-T790M): 20 nM; IC50 (EGFR Exon19Del/T790M; EGFR Exon19Del/T790M, 1 h at room temperature, read-out: IC50 @Del19-T790M): 11 nM; IC50 (EGFR (d746-750 C797S); EGFR (d746-750 C797S), 1 h at room temperature, read-out: IC50 @Del19-C797S): 15 nM; IC50 ([3]; EGFR[T790M/C797S/d746-750], 1 mM ATP, 1 h at room temperature, read-out: IC50 @T790M - C797S - Del19): 7.3 nM; IC50 (EGFR[T790M/C797S/L858R]; EGFR[T790M/C797S/L858R], 1 h at room temperature, read-out: IC50 @T790M- C797S - L858R): 8.2 nM; IC50 (EGFR L858R; 1 h at room temperature, read-out: IC50 @L858R): 244 nM
2 | CN1CCN(c2cc3c(cc2F)nc2n3C34CCC(CC3)CN(CCOc3c(cnn3C)-c3cc(cn(C)c3=O)C(=O)N2)C4)CC1 [Example A115, 6-fluoro-15,21-dimethyl-5-(4-methylpiperazin-1-yl)-23-oxa-2,9,11,15,20,21,26-heptaazaheptacyclo[26.2.2.1^{1,26}.1^{13,17}.0^{2,10}.0^{3,8}.0^{18,22}]tetratriaconta-3,5,7,9,13,17(34),18(22),19-octaene-12,16-dione] | 7.6 nM | 52 nM | 61 nM | 68 nM | 133 nM | 20 nM | 18 nM | 94 nM | 3040 nM | > 5000 nM | 112 nM | 325 nM | 12 nM | 9.2 nM | 6.6 nM | 50 nM | 233 nM | 
3 | Cn1ncc2c1OCCN1CC3CCC(C3)(C1)n1c(nc3ccc(N4CC(N5CCOCC5)C4)cc31)NC(=O)c1cc-2c(=O)n(C)c1 (single isomer, unassigned) [Example A69A] |  |  |  |  |  |  |  |  |  | > 5000 nM | > 5000 nM | > 5000 nM | > 5000 nM | 1780 nM | > 5000 nM | > 5000 nM | > 5000 nM | IC50 (EGFR Exon19Del; EGFR Del19, 1 mM ATP, 1 h, room temperature): 1200 nM; GI50 ([1]; BaF3 cells, EGFR DEL19-C797S, CellTiter-Glo, read-out: DEL19-C797S/BaF3 GI50): 227 nM; GI50 ([1]; BaF3 cells, EGFR DEL19-T790-C797S, CellTiter-Glo, read-out: DEL19-T790-C797S/BaF3 GI50): 366 nM; GI50 ([1]; BaF3 cells, EGFR L858R, CellTiter-Glo, read-out: L858R/BaF3 GI50): 643 nM; GI50 ([1]; BaF3 cells, EGFR L858R-C797S, CellTiter-Glo, read-out: L858R-C797S/BaF3 GI50): 598 nM; GI50 ([1]; BaF3 cells, EGFR L858R-T790-C797S, CellTiter-Glo, read-out: L858R-T790-C797S/BaF3 GI50): 503 nM; GI50 ([1]; BaF3 cells, EGFR L858R-T790M, CellTiter-Glo, read-out: L858R-T790M/BaF3 GI50): 1530 nM; GI50 ([1]; EGFR DEL19-T790M, CellTiter-Glo, read-out: DEL19-T790M GI50): 465 nM; GI50 (PC-9; CellTiter-Glo, read-out: PC9 GI50): 723 nM; GI50 (A-431 [4]): 9380 nM
